This is an account of results in patent US20260055060A1, “USE OF (ISOINDOLIN-2-YL)(4-HYDROXY-3-(ISOINDOLINE-2-CARBONYL)PHENYL)METHANONES IN THE TREATMENT OF TUMOR NECROSIS FACTOR RECEPTOR-ASSOCIATED PROTEIN 1 DYSFUNCTION” (UNIVERSITY OF NOTRE DAME DU LAC, priority 2022, published 2026).

Test [1] deals with HeLa cells. Nature of the test: Seahorse mitochondrial function (oligomycin, FCCP, rot/AA injections), HeLa. Format: cell-based. As to conditions: 6 hr pretreatment.
The test system of test [2] is HeLa cells. In words: TMRM staining for mitochondrial membrane potential. The following applies: 6 h treatment, 25 μM and 50 μM. Format: cell-based.
Test [3] relates to 22RV1 cells. Nature of the test: Seahorse mitochondrial function (oligomycin, FCCP, rot/AA injections), 22Rv1. Format: cell-based. As to conditions: 6 hr pretreatment.
The test system of test [4] is TRAP1-dependent client proteins NDUFS1, glutaminase-1, and Sirt3. As to conditions: literature report; cited from earlier work.
The test system of test [5] is HeLa cells. Nature of the test: Seahorse XFe oxygen consumption rate, HeLa. Format: cell-based. The following applies: 6 h treatment, significant at 25 μM and 50 μM.
For test [6], the system named is TRAP1-dependent client proteins NDUFS1, glutaminase-1, and Sirt3. In words: Western blot for degradation of TRAP1 client proteins. Format: cell-based. As to conditions: for degradation of TRAP1-dependent client proteins NDUFS1, glutaminase-1, Sirt3: HeLa and 22Rv1 cells, 6 h treatment. For orientation: In western blotting, separated proteins are transferred to a membrane and probed.

Test [7] has as its system HeLa cells. Nature of the test: Cellular ATP production rate (glycolysis vs mitochondrial). Format: cell-based. As to conditions: oligomycin and rot/AA injections.
Test [8] concerns 22RV1 cells. In words: Seahorse XFe oxygen consumption rate, 22Rv1. The following applies: 6 h treatment, significant at 25 μM and 50 μM. Format: cell-based.
The test system of test [9] is cytosolic Hsp90 clients, Akt and Cdk4, Hsp70. In words: Western blot for cytosolic Hsp90 clients and Hsp70 induction. Format: cell-based. The following applies: HeLa and 22Rv1 cells, 6 h treatment.
Test [10] concerns HeLa cells. In words: Mitochondrial fuel oxidation with BPTES, UK5099 and etomoxir. Type of test: cell-based.
The target of test [11] is T1, Hsp90β (Homo sapiens, UniProt P08238).
T1 construct: 50 μL of assay buffer containing 10 nM of Hsp90, Hsp90a, Grp94, or Trap1 were added to each well
Nature of the test: Fluorescence polarization assay (FITC-GDA tracer displacement), Hsp90β. Type of test: binding. As to conditions: Table 1; concentration at which tracer 50% displaced, reported as Kd.

Entries after “also recorded” stand apart in the source; their conditions may differ.

T1 sequence (P08238 whole entry): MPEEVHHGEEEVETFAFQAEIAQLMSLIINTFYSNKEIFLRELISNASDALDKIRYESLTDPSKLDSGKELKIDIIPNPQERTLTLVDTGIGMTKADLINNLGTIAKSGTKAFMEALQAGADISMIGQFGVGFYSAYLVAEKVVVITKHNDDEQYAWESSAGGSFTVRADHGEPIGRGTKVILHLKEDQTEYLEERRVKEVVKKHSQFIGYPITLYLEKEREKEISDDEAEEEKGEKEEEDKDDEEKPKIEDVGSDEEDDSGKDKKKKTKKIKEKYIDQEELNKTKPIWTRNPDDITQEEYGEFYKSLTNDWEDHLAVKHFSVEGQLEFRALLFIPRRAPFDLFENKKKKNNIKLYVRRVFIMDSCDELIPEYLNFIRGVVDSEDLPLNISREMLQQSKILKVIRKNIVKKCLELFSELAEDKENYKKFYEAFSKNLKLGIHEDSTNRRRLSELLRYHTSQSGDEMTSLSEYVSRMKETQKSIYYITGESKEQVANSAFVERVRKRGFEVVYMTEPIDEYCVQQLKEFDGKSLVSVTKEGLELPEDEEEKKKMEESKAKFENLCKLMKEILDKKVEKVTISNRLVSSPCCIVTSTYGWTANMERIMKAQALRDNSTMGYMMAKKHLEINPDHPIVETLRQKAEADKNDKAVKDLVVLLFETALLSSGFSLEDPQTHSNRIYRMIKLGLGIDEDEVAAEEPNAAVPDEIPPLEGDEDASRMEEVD

For the molecule `COC1=C(OC)C(=O)C(CCCCCCCCCC[P+](c2ccccc2)(c2ccccc2)c2ccccc2)=C(C)C1=O` [MitoQ, reference compound], the “proton leak, maximal respiration, non-mitochondrial O2 consumption, spare respiratory capacity” value in test [1] and in [3] was “decreased” in each case. The “TMRM fluorescence / mitochondrial membrane potential” value in test [2] was “marked decrease in TMRM fluorescence”. Also, in test [4], the “degradation of TRAP1 client proteins (reported by Yoon, N. G. et al.)” value is “induce the degradation of these clients”.

Take `O=C(c1ccc(O)c(C(=O)N2Cc3ccc(OCCC[P+](c4ccccc4)(c4ccccc4)c4ccccc4)cc3C2)c1)N1Cc2cccc(F)c2C1` [Compound 35, (3-((2-(5-(4-Fluoroisoindoline-2-carbonyl)-2-hydroxybenzoyl)isoindolin-5-yl)oxy)propyl)triphenylphosphonium hexafluorophosphate(V)]: the “proton leak, maximal respiration, non-mitochondrial O2 consumption, spare respiratory capacity” value in test [1] and in test [3] was “decreased” each time. Further, the “oxygen consumption rate / OXPHOS” value in test [5] is given as “statistically significant reduction of oxygen consumption; also recorded: significant dose-dependent decrease in OXPHOS; also recorded: inhibit OXPHOS”; in [8], “significant dose-dependent decrease in OXPHOS; also recorded: statistically significant reduction of oxygen consumption; also recorded: inhibit OXPHOS”. Moreover, the “TMRM fluorescence / mitochondrial membrane potential” value in test [2] was “marked decrease in TMRM fluorescence; also recorded: disrupt the mitochondrial membrane potential”. For the same molecule, the “degradation of TRAP1-dependent client proteins NDUFS1, glutaminase-1, Sirt3” value in test [6] was “dose-dependent and selective degradation”. In addition, in test [6] (HeLa cells, 2 hr treatment, up to 50 μM), the “expression of TRAP1 clients NDUFS1, glutaminase-1, Sirt3” value is “dose-dependently decreased”. Also, the “cellular ATP production via oxidative phosphorylation or glycolysis” value in [7] was “alter cellular metabolism towards glycolysis”. Besides, the “degradation of cytosolic Hsp90 clients Akt and Cdk4, induction of Hsp70” value (“degradation … of Hsp70” for short) in test [9] is given as “without inducing the degradation”. For the same molecule, the “mitochondrial glutamine, fatty acid, and glucose oxidation” value in test [10] (6 hr treatment, 32 at 50 μM) is “reduced OCR (oxygen consumption rate) and prevented measurement”. The “response of basal OCR to BPTES, UK5099, etomoxir” value in test [10] (HeLa cells, 2 hr incubation, 50 μM) is “unresponsive to BPTES, UK5099, and etomoxir”.

A word on the Kd: it is the concentration at which binding is half-saturated. Low values mean tighter binding, high ones weaker binding. In the case of `O=C(c1cc(C(=O)N2Cc3ccccc3C2)c(O)cc1O)N1Cc2ccccc2C1` [Compound 4], binding in test [11] was characterised by a dissociation constant (Kd) of 1000 ± 50 nM.

gamitrinib [reference compound]: the “proton leak, maximal respiration, non-mitochondrial O2 consumption, spare respiratory capacity” value in test [1] and in test [3] was “decreased” throughout. For the same molecule, in [2], the “TMRM fluorescence / mitochondrial membrane potential” value is recorded as “marked decrease in TMRM fluorescence”. Further, the “degradation … of Hsp70” value in test [9] was “pan-Hsp90 inhibition”.

As to `COc1cccc2c1CN(C(=O)c1ccc(O)c(C(=O)N3Cc4ccc(OCCC[P+](c5ccccc5)(c5ccccc5)c5ccccc5)cc4C3)c1)C2` [Compound 36, (3-((2-(2-Hydroxy-5-(4-methoxyisoindoline-2-carbonyl)benzoyl)isoindolin-5-yl)oxy)propyl)triphenylphosphonium hexafluorophosphate(V)], the “proton leak, maximal respiration, non-mitochondrial O2 consumption, spare respiratory capacity” value in test [1] and in test [3] was “decreased” throughout. Further, the “oxygen consumption rate / OXPHOS” value in test [5] is recorded as “statistically significant reduction of oxygen consumption; also recorded: significant dose-dependent decrease in OXPHOS; also recorded: inhibit OXPHOS”; in test [8] it was “significant dose-dependent decrease in OXPHOS; also recorded: statistically significant reduction of oxygen consumption; also recorded: inhibit OXPHOS”. In addition, the “TMRM fluorescence / mitochondrial membrane potential” value in test [2] was “marked decrease in TMRM fluorescence; also recorded: disrupt the mitochondrial membrane potential”. Moreover, in test [6], the “degradation of TRAP1-dependent client proteins NDUFS1, glutaminase-1, Sirt3” value was “dose-dependent and selective degradation”. Moreover, the “cellular ATP production via oxidative phosphorylation or glycolysis” value in test [7] is “alter cellular metabolism towards glycolysis”. Also, the “degradation … of Hsp70” value in test [9] was “without inducing the degradation”.
